# Like-named read-outs stand apart in the source and are kept apart here.
# Experiments:
# [1] = tested on: TLR2 induced IL-6 in peripheral blood mononuclear cells (PBMCs); assay: PBMC TLR2 Induced IL-6 Assay; format: cell-based, human; details: human PBMCs, 10 μg/ml lipoteichoic acid for 5 hours, IL-6 by ELISA, value without asterisk, read-out: Cell IC50
# Method in brief: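 Human PBMCs (250000 cells/well) in RPMI with 10% heat-inactivated FCS pre-treated with compound for 30 min at 37° C, then stimulated 5 h with 10 μg/ml lipoteichoic acid. Supernatant IL-6 measured by ELISA and reported as IC50 or EC50.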
# [2] = biological target: IRAK4 (Homo sapiens (Human), UniProt Q9NWZ3); assay: IRAK4 Inhibition Assay; format: biochemical; details: ATP 500 μM; IRAK4 0.6 nM; 60 min at room temperature
# Protocol: The assays were performed in U-bottom 384-well plates. […] The reaction was initiated by the combination of IRAK4 with substrates and test compounds. The reaction was incubated at room temperature for 60 min. and terminated by adding 45 μL of 35 mM EDTA to each sample. The reaction mixture was analyzed on the Caliper LABCHIP® 3000 (Caliper, Hopkinton, Mass.) by electrophoretic separation of the fluorescent substrate and phosphorylated product.
# Chain of IRAK4 (Q9NWZ3 whole entry, species assumed): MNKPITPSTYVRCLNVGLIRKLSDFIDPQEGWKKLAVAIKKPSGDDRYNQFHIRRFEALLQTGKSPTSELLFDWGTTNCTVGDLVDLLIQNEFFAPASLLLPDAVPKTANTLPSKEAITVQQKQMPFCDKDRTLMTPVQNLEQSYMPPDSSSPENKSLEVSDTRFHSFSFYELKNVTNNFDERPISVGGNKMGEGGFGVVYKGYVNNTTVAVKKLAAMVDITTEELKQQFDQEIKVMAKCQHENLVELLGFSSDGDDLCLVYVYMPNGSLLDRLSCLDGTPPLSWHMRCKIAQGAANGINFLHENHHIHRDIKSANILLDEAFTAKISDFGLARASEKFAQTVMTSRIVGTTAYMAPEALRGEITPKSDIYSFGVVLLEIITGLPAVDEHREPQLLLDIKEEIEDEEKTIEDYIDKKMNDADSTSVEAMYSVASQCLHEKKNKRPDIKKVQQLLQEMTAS
Structure (SMILES),"IC50 ([1]; Homo sapiens, PBMC, 5 h)",IC50 [2],IC50 [1]
CC(C)Nc1cc(Nc2ccc3ncsc3c2)ncc1C(=O)NCC[C@@H](C)NC(=O)Cn1ccnn1 [Example 193],345 nM,3.1 nM,
CC(C)Nc1cc(Nc2ccc3ncsc3c2)ncc1C(=O)NCC[C@@H](C)NC(=O)CC1CCCOC1 (some centres unmarked) [Example 194],208 nM,2.5 nM,
CC(C)Nc1cc(Nc2ccc3ncsc3c2)ncc1C(=O)N[C@H]1CC[C@H](C(=O)NC(C)C)CC1 [Example 195],162 nM,2 nM,
CC(C)Nc1cc(Nc2ccc3ncsc3c2)ncc1C(=O)N[C@H]1CC[C@H](C(=O)NCC(C)(C)O)CC1 [Example 196],325 nM,3.5 nM,
CC(C)Nc1cc(Nc2ccc3ncsc3c2)ncc1C(=O)NCC[C@@H](C)NC(=O)[C@@H]1CC[C@H](F)C1 [Example 198],307 nM,2.6 nM,
CC(=O)NCCCNC(=O)c1cnc(Nc2ccc3ncsc3c2)cc1NC(C)C [Example 199],551 nM,8.4 nM,
CC(=O)N[C@H]1CC[C@H](NC(=O)c2cnc(Nc3ccc4ncsc4c3)cc2NC(C)C)CC1 [Example 200],94 nM,2.2 nM,
CC(C)Nc1cc(Nc2ccc3ncsc3c2)ncc1C(=O)N[C@H]1CC[C@H](NC(=O)c2ccccn2)CC1 [Example 201],499 nM,4.5 nM,
CC(C)Nc1cc(Nc2ccc3ncsc3c2)ncc1C(=O)N[C@H]1CC[C@H](NC(=O)c2cccnc2)CC1 [Example 202],156 nM,2.4 nM,
CC(C)Nc1cc(Nc2ccc3ncsc3c2)ncc1C(=O)N[C@H]1CC[C@H](N)CC1 [Example 203],307 nM,3.4 nM,
CC(C)Nc1cc(Nc2ccc3ncsc3c2)ncc1C(=O)N[C@H]1CC[C@H](NS(C)(=O)=O)CC1 [Example 204],252 nM,2.6 nM,
CC(C)Nc1cc(Nc2ccc3ncsc3c2)ncc1C(=O)N[C@H]1CC[C@H](NC(=O)N2CCOCC2)CC1 [Example 205],169 nM,1.8 nM,
CC(C)NC(=O)N[C@H]1CC[C@H](NC(=O)c2cnc(Nc3ccc4ncsc4c3)cc2NC(C)C)CC1 [Example 206],139 nM,2.1 nM,
CC(C)Nc1cc(Nc2ccc3ncsc3c2)ncc1C(=O)N[C@H]1CC[C@H](NC(=O)c2ccncc2)CC1 [Example 207],158 nM,1.7 nM,
CC(C)Nc1cc(Nc2ccc3ncsc3c2)ncc1C(=O)NCC[C@@H](C)NC(=O)N(C)c1ccccc1 [Example 208],647 nM,3.7 nM,
CC(=O)NCCCCNC(=O)c1cnc(Nc2ccc3ncsc3c2)cc1NC(C)C [Example 209],875 nM,5.3 nM,
CC(C)Nc1cc(Nc2ccc3ncsc3c2)ncc1C(=O)NCC[C@@H](C)NC(=O)N1CCCC1 [Example 212],712 nM,6.9 nM,
CC(C)Nc1cc(Nc2ccc3ncsc3c2)ncc1C(=O)N[C@H]1CC[C@H](C(=O)NC2(C#N)CC2)CC1 [Example 213],403 nM,3.1 nM,
CC(C)Nc1cc(Nc2ccc3ncsc3c2)ncc1C(=O)N[C@H]1CC[C@H](C(=O)NC23CC4CC(CC(O)(C4)C2)C3)CC1 [Example 214],371 nM,6.7 nM,
CC(=O)N[C@H]1CC[C@@H](NC(=O)c2cnc(Nc3ccc4ncsc4c3)cc2NC(C)C)CC1 [Example 216],604 nM,3.5 nM,

Structure (SMILES),"IC50 ([1]; Homo sapiens, PBMC, 5 h)",IC50 [2],IC50 [1]
CC(C)Nc1cc(Nc2ccc3ncsc3c2)ncc1C(=O)NC1CCN(S(C)(=O)=O)CC1 [Example 217],560 nM,5 nM,
CC(C)Nc1cc(Nc2ccc3ncsc3c2)ncc1C(=O)NC1CCN(C(=O)N2CCOCC2)CC1 [Example 218],471 nM,7 nM,
CC(C)Nc1cc(Nc2ccc3ncsc3c2)ncc1C(=O)NC1CCN(C(=O)c2cccnc2)CC1 [Example 219],447 nM,4.8 nM,
CC(C)Nc1cc(Nc2ccc3ncsc3c2)ncc1C(=O)N[C@H]1CC[C@H](C(=O)NC23CCC(O)(CC2)C3)CC1 [Example 220],328 nM,3.4 nM,
CNC(=O)[C@H]1CC[C@H](NC(=O)c2cnc(Nc3ccc4ncsc4c3)cc2NC(C)C)C1 [Example 221],462 nM,10.5 nM,
CC(C)Nc1cc(Nc2ccc3ncsc3c2)ncc1C(=O)N[C@H]1CC[C@H](C(=O)NC2(C#N)CC2)C1 [Example 222],692 nM,9.9 nM,
CC(C)Nc1cc(Nc2ccc3ncsc3c2)ncc1C(=O)NC12CCC(N)(CC1)CC2 [Example 223],238 nM,4.2 nM,
CC(C)Nc1cc(Nc2ccc3ncsc3c2)ncc1C(=O)NC12CCC(N)(CC1)C2 [Example 224],280 nM,9.6 nM,
CCNC(=O)[C@H]1CC[C@H](NC(=O)c2cnc(Nc3ccc4ncsc4c3)cc2NC(C)C)CC1 [Example 225],535 nM,3.3 nM,
CC(C)Nc1cc(Nc2ccc3ncsc3c2)ncc1C(=O)NC12CCC(C(=O)NCC(C)(C)O)(CC1)CC2 [Example 226],274 nM,3.4 nM,
CC(C)Nc1cc(Nc2ccc3ncsc3c2)ncc1C(=O)N[C@H]1CC[C@H](C(=O)NC2CC2)CC1 [Example 227],138 nM,2.7 nM,
CC(C)Nc1cc(Nc2ccc3ncsc3c2)ncc1C(=O)N[C@H]1CC[C@H](C(N)=O)CC1 [Example 228],392 nM,2.4 nM,
CNC(=O)C12CCC(NC(=O)c3cnc(Nc4ccc5ncsc5c4)cc3NC(C)C)(CC1)CC2 [Example 229],488 nM,3.4 nM,
CC(C)(O)[C@H](F)CNC(=O)c1cnc(Nc2ccc3ncsc3c2)cc1NC1CCOCC1F (some centres unmarked) [Example 230],,5.1 nM,274 nM
CC(C)(O)[C@H](F)CNC(=O)c1cnc(Nc2ccc3ncsc3c2)cc1NC1CCOCC1F (some centres unmarked) [Example 231],,3.4 nM,88 nM
CC1COCCC1Nc1cc(Nc2ccc3ncsc3c2)ncc1C(=O)NC[C@@H](F)C(C)(C)O (some centres unmarked) [Example 232],,35.7 nM,697 nM
CC1COCCC1Nc1cc(Nc2ccc3ncsc3c2)ncc1C(=O)NC[C@@H](F)C(C)(C)O (some centres unmarked) [Example 233],,7.4 nM,469 nM
CC(C)(O)[C@H](F)CNC(=O)c1cnc(Nc2ccc3ncsc3c2)cc1NC1COCCC1F (some centres unmarked) [Example 235],263 nM,1.7 nM,
CC(C)(O)[C@H](F)CNC(=O)c1cnc(Nc2ccn3nccc3n2)cc1NC1CC1 [Example 236],346 nM,4.7 nM,
CC(C)(O)[C@H](F)CNC(=O)c1cnc(Nc2ccn3nccc3n2)cc1NC1CCOCC1 [Example 237],222 nM,3.1 nM,

Structure (SMILES),"IC50 ([1]; Homo sapiens, PBMC, 5 h)",IC50 [2],IC50 [1]
CC(C)Nc1cc(Nc2ccn3ncc(Cl)c3n2)ncc1C(=O)NC[C@@H](F)C(C)(C)O [Example 243],,5.5 nM,567 nM
CC(C)Nc1cc(Nc2ccn3ncc(F)c3n2)ncc1C(=O)NC[C@@H](F)C(C)(C)O [Example 244],156 nM,1.9 nM,
CC(C)(O)[C@H](F)CNC(=O)c1cnc(Nc2ccn3nccc3n2)cc1NC1CCCC1F (some centres unmarked) [Example 245],390 nM,2.8 nM,
CC(C)(O)[C@H](F)CNC(=O)c1cnc(Nc2ccn3nccc3n2)cc1NC1CCCC1F (some centres unmarked) [Example 246],,5.5 nM,262 nM
CC(C)(O)[C@H](F)CNC(=O)c1cnc(Nc2ccn3nccc3n2)cc1NC1CCC(F)C1 (some centres unmarked) [Example 247],,2.7 nM,170 nM
CC(C)(O)[C@H](F)CNC(=O)c1cnc(Nc2ccn3nccc3n2)cc1NC1CCC(F)C1 (some centres unmarked) [Example 248],,3.1 nM,176 nM
CC(C)(O)[C@H](F)CNC(=O)c1cnc(Nc2ccn3ncc(F)c3n2)cc1NC1CC1 [Example 251],369 nM,3.2 nM,
CC(C)(O)[C@H](F)CNC(=O)c1cnc(Nc2ccn3ncc(F)c3n2)cc1NC1CCC1 [Example 252],173 nM,4.2 nM,
CC(C)(F)CNc1cc(Nc2ccn3nccc3n2)ncc1C(=O)NC[C@@H](F)C(C)(C)O [Example 253],308 nM,5.2 nM,
CC(C)(O)[C@H](F)CNC(=O)c1cnc(Nc2ccn3nccc3n2)cc1NC1CCC(F)C1 (some centres unmarked) [Example 254],,2.5 nM,131 nM
CC(C)(O)[C@H](F)CNC(=O)c1cnc(Nc2ccn3nccc3n2)cc1NC1CCC(F)C1 (some centres unmarked) [Example 255],,2.4 nM,86 nM
CC(C)(O)[C@H](F)CNC(=O)c1cnc(Nc2ccn3nccc3n2)cc1NC1COCCC1F (some centres unmarked) [Example 256],587 nM,8.8 nM,
CC(C)(F)CNc1cc(Nc2ccn3ncc(F)c3n2)ncc1C(=O)NC[C@@H](F)C(C)(C)O [Example 257],321 nM,3.1 nM,
CC(C)Nc1cc(Nc2ccn3ncc(C#N)c3n2)ncc1C(=O)NC[C@@H](F)C(C)(C)O [Example 261],126 nM,3.6 nM,
CC(C)Nc1cc(Nc2ccn3ncc(Cl)c3n2)ncc1C(=O)NC[C@@H](F)C(C)(C)O [Example 262],,2.9 nM,141 nM
CC(C)(O)[C@H](F)CNC(=O)c1cnc(Nc2ccn3nccc3n2)cc1NC1CC(F)C1 (some centres unmarked) [Example 263],190 nM,4.2 nM,
CC(C)(F)CNc1cc(Nc2ccn3ncc(Cl)c3n2)ncc1C(=O)NC[C@@H](F)C(C)(C)O [Example 264],384 nM,4.6 nM,
CC(C)(O)[C@H](F)CNC(=O)c1cnc(Nc2ccn3ncc(F)c3n2)cc1NC1CC(F)(F)C1 [Example 265],217 nM,3.3 nM,

# Source: patent US9546153B2, “Bicyclic heterocycle substituted pyridyl compounds useful as kinase modulators” (BRISTOL-MYERS SQUIBB COMPANY, priority 2012, dated 2017)
